In ChEMBL document CHEMBL4828718, “Synthesis and Antifungal Activity Evaluation of Phloeodictine Analogues” (J Nat Prod, 2021):
≈ marks a conversion by molar mass, not a printed value. Calls of active or inactive are those of the source. The rule behind the calls is not given here.

What was measured:
Vero = test: Cytotoxicity against African green monkey Vero cells assessed as reduction in cell viability incubated for 48 hrs by neutral red dye based assay; set-up: species or system Chlorocebus sabaeus
Pichia kudriavzevii [1] = test: Fungicidal activity against Candida krusei ATCC 6258 assessed as fungal growth inhibition incubated for 18 to 24 hrs by alamar blue assay; assay type: functional
Nakaseomyces glabratus [2] = test: Antifungal activity against Candida glabrata ATCC 90030 assessed as fungal growth inhibition incubated for 18 to 24 hrs by alamar blue assay; assay type: functional
Candida albicans [3] = test: Antifungal activity against Candida albicans ATCC 90028 assessed as fungal growth inhibition incubated for 18 to 24 hrs by alamar blue assay; assay type: functional
Cryptococcus neoformans [4] = test: Antifungal activity against Cryptococcus neoformans ATCC 90113 assessed as fungal growth inhibition incubated for 72 hrs by alamar blue assay; assay type: functional
Cryptococcus neoformans [5] = test: Fungicidal activity against Cryptococcus neoformans ATCC 90113 assessed as fungal growth inhibition incubated for 72 hrs by alamar blue assay; assay type: functional
Aspergillus fumigatus [6] = test: Antifungal activity against Aspergillus fumigatus ATCC 90906 assessed as fungal growth inhibition incubated for 72 hrs by alamar blue assay; assay type: functional
Aspergillus fumigatus [7] = test: Fungicidal activity against Aspergillus fumigatus ATCC 90906 assessed as fungal growth inhibition incubated for 72 hrs by alamar blue assay; assay type: functional
Candida albicans [8] = test: Fungicidal activity against Candida albicans ATCC 90028 assessed as fungal growth inhibition incubated for 18 to 24 hrs by alamar blue assay; assay type: functional
Nakaseomyces glabratus [9] = test: Fungicidal activity against Candida glabrata ATCC 90030 assessed as fungal growth inhibition incubated for 18 to 24 hrs by alamar blue assay; assay type: functional
Pichia kudriavzevii [10] = test: Antifungal activity against Candida krusei ATCC 6258 assessed as fungal growth inhibition incubated for 18 to 24 hrs by alamar blue assay; assay type: functional
[11] = Chlorocebus sabaeus, Vero, 48 h
[12] = Cryptococcus neoformans, ATCC 90113, 72 h, read-out: MIC
[13] = Cryptococcus neoformans, ATCC 90113, 72 h, read-out: MFC
[14] = Pichia kudriavzevii, ATCC 6258, time 18-24 hrs, read-out: MFC
[15] = Nakaseomyces glabratus, ATCC 90030, time 18-24 hrs, read-out: MIC
[16] = Candida albicans, ATCC 90028, time 18-24 hrs, read-out: MIC
[17] = Aspergillus fumigatus, ATCC 90906, 72 h, read-out: MIC
[18] = Aspergillus fumigatus, ATCC 90906, 72 h, read-out: MFC
[19] = Candida albicans, ATCC 90028, time 18-24 hrs, read-out: MFC
[20] = Nakaseomyces glabratus, ATCC 90030, time 18-24 hrs, read-out: MFC
[21] = Pichia kudriavzevii, ATCC 6258, time 18-24 hrs, read-out: MIC

Row | Structure (SMILES) | IC50 (Vero; [11]) | MIC (Cryptococcus neoformans [4]; [12]) | MFC (Cryptococcus neoformans [5]; [13]) | MIC (Aspergillus fumigatus [6]) | MFC (Aspergillus fumigatus [7]) | MFC (Pichia kudriavzevii [1]; [14]) | MIC (Nakaseomyces glabratus [2]; [15]) | MIC (Candida albicans [3]; [16]) | MIC (Aspergillus fumigatus [6]; [17]) | MFC (Aspergillus fumigatus [7]; [18]) | MFC (Candida albicans [8]; [19]) | MFC (Nakaseomyces glabratus [9]; [20]) | MIC (Pichia kudriavzevii [10]; [21]) | further results
1 | CCCCCCCCCCCCCCC1(O)C(C)=C(C)C2=[N+](C)c3ccccc3CN21 (stereo not drawn) | > 45 µM | 2.4 µM | 2.4 µM | inactive | inactive |  |  |  |  |  |  |  |  | MFC (Pichia kudriavzevii [1]; time 18-24 hrs): inactive; MIC (Nakaseomyces glabratus [2]; time 18-24 hrs): inactive; MIC (Candida albicans [3]; time 18-24 hrs): inactive; MFC (Candida albicans [8]; time 18-24 hrs): inactive; MFC (Nakaseomyces glabratus [9]; time 18-24 hrs): inactive; MIC (Pichia kudriavzevii [10]; time 18-24 hrs): inactive
2 | CCCCCCCCCCCCCCc1c(C)c(C)cn1CCCNC | 35 µM | 3.3 µM (≈ 1.2 µg/mL) | 6.9 µM (≈ 2.5 µg/mL) |  |  | 6.9 µM (≈ 2.5 µg/mL) | 6.9 µM (≈ 2.5 µg/mL) | 12 µM (≈ 4.35 µg/mL) | 21 µM (≈ 7.62 µg/mL) | 23 µM (≈ 8.34 µg/mL) | 12 µM (≈ 4.35 µg/mL) | 6.9 µM (≈ 2.5 µg/mL) | 6.9 µM (≈ 2.5 µg/mL) | 
3 | C#CC[N+]1=C2C(C)=C(C)C(O)(CCCCCCCCCCCCCC)N2CCC1 (stereo not drawn) | 35 µM | 1.5 µM | 2.3 µM |  |  | 2.1 µM | 5.2 µM | 5.2 µM | 5.2 µM | 5.2 µM | 5.2 µM | 5.2 µM | 2.1 µM | 
4 | CCCCCCCCCCCCCCC1(O)C(C)=C(C)C2=[N+](Cc3ccccc3)CCCN21.[Cl-] (stereo not drawn) |  |  |  | 5.9 µM | 5.9 µM |  |  |  |  |  |  |  |  | IC50 (Vero; vero): 36 µM; MFC (Pichia kudriavzevii [1]; time 18-24 hrs): 4.3 µM; MIC (Nakaseomyces glabratus [2]; time 18-24 hrs): 4.3 µM; MIC (Candida albicans [3]; time 18-24 hrs): 6.7 µM; MIC (Cryptococcus neoformans [4]): 2 µM; MFC (Cryptococcus neoformans [5]): 2 µM; MFC (Candida albicans [8]; time 18-24 hrs): 6.7 µM; MFC (Nakaseomyces glabratus [9]; time 18-24 hrs): 4.3 µM; MIC (Pichia kudriavzevii [10]; time 18-24 hrs): 4.3 µM
5 | CCCCCCCCCCCCCCC1(O)C(C)=C(C)C2=[N+](CC(=O)OCC)CCCN21 (stereo not drawn) | 44 µM | 1.9 µM | 2.8 µM |  |  | 5.5 µM | 6.2 µM | 9.4 µM | 9.4 µM | 9.4 µM | 17 µM | 11 µM | 5.5 µM | 
6 | CCCCCCCCCCCCCCC1(O)C(C)=C(C)C2=[N+](CC(=O)NCCOCCOCCOCCNC(=O)CCCC[C@@H]3SC[C@@H]4NC(=O)N[C@@H]43)CCCN21 (stereo partly drawn) | > 28 µM | 3.7 µM | 4.5 µM | inactive | inactive |  |  |  |  |  |  |  |  | MFC (Pichia kudriavzevii [1]; time 18-24 hrs): inactive; MIC (Nakaseomyces glabratus [2]; time 18-24 hrs): inactive; MIC (Candida albicans [3]; time 18-24 hrs): inactive; MFC (Candida albicans [8]; time 18-24 hrs): inactive; MFC (Nakaseomyces glabratus [9]; time 18-24 hrs): inactive; MIC (Pichia kudriavzevii [10]; time 18-24 hrs): inactive
7 | CCCCCCCCCCCCCCC1(O)C(C)=C(C)C2=[N+](CC#N)CCCN21 (stereo not drawn) | > 52 µM | 1 µM | 1 µM |  |  | 4.4 µM | 6 µM | 10 µM | 6 µM | 6 µM | 10 µM | 8.7 µM | 3.5 µM | 
8 | CCCCCCCCCCCCCCC1(O)C(C)=C(C)C2=[N+](Cc3cc(OC)c(OC)c(OC)c3)CCCN21 (stereo not drawn) | > 40 µM | 1.6 µM | 1.6 µM |  |  | 1.9 µM | 4 µM | 5.3 µM | 4 µM | 4 µM | 5.3 µM | 4 µM | 1.9 µM | 
9 | CCCCCCCCCCCCCCC1(O)C(C)=C(C)C2=[N+](Cc3cnnn3Cc3ccccc3)CCCN21 (stereo not drawn) | > 40 µM | 1.3 µM | 2 µM |  |  | 2.8 µM | 3.4 µM | 5.4 µM | 6.8 µM | 6.8 µM | 6.8 µM | 4.7 µM | 2.8 µM | 
10 | C[C@@H]1[C@H](O)[C@@H](C)/C=C/C=C/C=C/C=C/C=C/C=C/C=C/[C@H](O[C@@H]2O[C@H](C)[C@@H](O)[C@H](N)[C@@H]2O)C[C@@H]2O[C@](O)(C[C@@H](O)C[C@@H](O)[C@H](O)CC[C@@H](O)C[C@@H](O)CC(=O)O[C@H]1C)C[C@H](O)[C@H]2C(=O)O [AMPHOTERICIN B] | 6.8 µM | 0.65 µM (≈ 0.601 µg/mL) | 0.65 µM (≈ 0.601 µg/mL) |  |  | 1.3 µM (≈ 1.2 µg/mL) | 0.65 µM (≈ 0.601 µg/mL) | 0.77 µM (≈ 0.712 µg/mL) | 2.3 µM (≈ 2.13 µg/mL) | 4 µM (≈ 3.7 µg/mL) | 0.97 µM (≈ 0.896 µg/mL) | 0.65 µM (≈ 0.601 µg/mL) | 1.3 µM (≈ 1.2 µg/mL) | 
11 | CCCCCCCCCCCCCCC1(O)C(C)=C(C)C2=[N+](Cc3cc(C(F)(F)F)cc(C(F)(F)F)c3)CCCN21 (stereo not drawn) | > 37 µM | 1.8 µM | 2.5 µM | inactive | inactive | 3.7 µM | 2.5 µM | 30 µM |  |  |  | 2.5 µM | 3.7 µM | MFC (Candida albicans [8]; time 18-24 hrs): inactive
12 | CCCCCCCCCCCCCCc1c(C)c(C)cn1CCCN | 44 µM | 2.9 µM (≈ 1.01 µg/mL) | 2.9 µM (≈ 1.01 µg/mL) |  |  | 12 µM (≈ 4.18 µg/mL) | 11 µM (≈ 3.83 µg/mL) | 24 µM (≈ 8.37 µg/mL) | 19 µM (≈ 6.62 µg/mL) | 19 µM (≈ 6.62 µg/mL) | 24 µM (≈ 8.37 µg/mL) | 12 µM (≈ 4.18 µg/mL) | 12 µM (≈ 4.18 µg/mL) | 
13 | CCCCCCCCCCCCCCC1(O)C(C)=C(C)C2=[N+](Cc3ccc(Br)cc3)CCCN21 (stereo not drawn) | 35 µM | 3.4 µM | 6 µM |  |  | 2 µM | 2 µM | 5.4 µM | 5.4 µM | 8.2 µM | 5.4 µM | 2 µM | 2 µM | 
14 | CCCCCCCCCCCCCCC1(O)C(C)=C(C)C2=[N+](Cc3cccc(OC)c3)CCCN21 (stereo not drawn) | 24 µM | 1.1 µM | 1.1 µM |  |  | 3 µM | 2.1 µM | 3 µM | 3 µM | 3 µM | 3 µM | 2.1 µM | 2.1 µM | 
15 | CCCCCCCCCCCCCCC1(O)C(C)=C(C)C2=[N+](Cc3ccc4ccccc4c3)CCCN21 (stereo not drawn) | 42 µM | 3.9 µM | 12 µM | inactive | inactive |  |  |  |  |  |  |  |  | MFC (Pichia kudriavzevii [1]; time 18-24 hrs): inactive; MIC (Nakaseomyces glabratus [2]; time 18-24 hrs): inactive; MIC (Candida albicans [3]; time 18-24 hrs): inactive; MFC (Candida albicans [8]; time 18-24 hrs): inactive; MFC (Nakaseomyces glabratus [9]; time 18-24 hrs): inactive; MIC (Pichia kudriavzevii [10]; time 18-24 hrs): inactive
16 | CCCCCCCCCCCCCCC1(O)C(C)=C(C)C2=[N+](CC(=O)c3cccc(Cl)c3)CCCN21 (stereo not drawn) | 7.7 µM | 3.7 µM | 3.7 µM | inactive | inactive | 6.2 µM | 4.9 µM | 18 µM |  |  | 18 µM | 4.9 µM | 6.2 µM | 
17 | CCCCCCCCCCCCCCC1(O)C(C)=C(C)C2=[N+](Cc3ccc([N+](=O)[O-])cc3)CCCN21 (stereo not drawn) | 36 µM | 1.4 µM | 1.4 µM |  |  | 1.7 µM | 2.1 µM | 4.3 µM | 5 µM | 5 µM | 4.3 µM | 2.1 µM | 1.7 µM | 
18 | CCCCCCCCCCCCCCC1(O)C(C)=C(C)C2=[N+](CC(=O)O)CCCN21 (stereo not drawn) | > 50 µM | 5.4 µM | 5.4 µM | inactive | inactive |  |  |  |  |  |  |  |  | MFC (Pichia kudriavzevii [1]; time 18-24 hrs): inactive; MIC (Nakaseomyces glabratus [2]; time 18-24 hrs): inactive; MIC (Candida albicans [3]; time 18-24 hrs): inactive; MFC (Candida albicans [8]; time 18-24 hrs): inactive; MFC (Nakaseomyces glabratus [9]; time 18-24 hrs): inactive; MIC (Pichia kudriavzevii [10]; time 18-24 hrs): inactive
19 | CCCCCCCCCCCCCCC1(O)C(C)=C(C)C2=[N+](CC(=O)c3cccs3)CCCN21 (stereo not drawn) | 27 µM | 12 µM | 12 µM |  |  | 5.1 µM | 5.1 µM | 7.4 µM | 8.8 µM | 8.8 µM | 7.4 µM | 5.1 µM | 5.1 µM | 
20 | C=CC[N+]1=C2C(C)=C(C)C(O)(CCCCCCCCCCCCCC)N2CCC1 (stereo not drawn) | 32 µM | 1 µM | 4.1 µM |  |  | 2.5 µM | 3.5 µM | 3.5 µM | 5.2 µM | 17 µM | 4.3 µM | 5.2 µM | 2.5 µM | 
21 | CCCCCCCCCCCCCCC1(O)C(C)=C(C)C2=[N+](Cc3ccc(C(F)(F)F)cc3)CCCN21 (stereo not drawn) | > 42 µM | 1 µM | 3.5 µM |  |  | 2 µM | 2 µM | 5.5 µM | 17 µM | 19 µM | 7 µM | 2 µM | 2 µM | 
22 | CCCCCCCCCCCCCCC1(O)C(C)=C(C)C2=[N+](Cc3cccc(C(F)(F)F)c3)CCCN21 (stereo not drawn) | 27 µM | 1.3 µM | 1.7 µM |  |  | 2.8 µM | 2 µM | 4.2 µM | 4.2 µM | 6.3 µM | 4.2 µM | 2 µM | 2.8 µM | 
23 | CCCCCCCCCCCCCCC1(O)C(C)=C(C)C2=[N+](Cc3ccc(C#N)cc3)CCCN21 (stereo not drawn) | 29 µM | 1.1 µM | 1.1 µM |  |  | 2.1 µM | 2.1 µM | 4.5 µM | 4.5 µM | 4.5 µM | 4.5 µM | 2.1 µM | 2.1 µM | 
